Data: the NIST ThermoML archive (doi:10.1016/j.jct.2005.11.012)

Experiments:
[1] = 101 kPa, Liquid
[2] = refractive index (Na D-line) (dimensionless); settings: 101.33 kPa, Liquid
[3] = xn = mol fraction of the nth substance listed; settings: 101 kPa, Liquid
[4] = refractive index (Na D-line) (dimensionless); xn = mol fraction of the nth substance listed; settings: 101 kPa, Liquid

BrC(Br)C(Br)Br [1,1,2,2-tetrabromoethane]
Settings	mass density, [1] [kg/m3]	refractive index, [2]
293.15 K	2963.2	1.63535
303.15 K	2939.86	1.62926

BrC(Br)C(Br)Br [1,1,2,2-tetrabromoethane] + CCCCCCCCCCO
Settings	mass density, [3] [kg/m3]	refractive index, [4]
293.15 K, x1 = 0.1023	968.19	1.44929
293.15 K, x1 = 0.202	1114.37	1.46226
293.15 K, x1 = 0.3012	1272.36	1.47639
293.15 K, x1 = 0.4012	1446.62	1.49207
293.15 K, x1 = 0.5007	1636.66	1.50944
293.15 K, x1 = 0.6006	1847.04	1.52888
293.15 K, x1 = 0.7011	2081.74	1.55057
293.15 K, x1 = 0.8006	2340.68	1.57518
293.15 K, x1 = 0.9006	2632.79	1.60321
293.15 K, x1 = 1	2963.2	1.63535
303.15 K, x1 = 0.1023	960.09	1.44494
303.15 K, x1 = 0.202	1104.97	1.45758
303.15 K, x1 = 0.3012	1261.57	1.47147
303.15 K, x1 = 0.4012	1434.34	1.48697
303.15 K, x1 = 0.5007	1622.78	1.50399
303.15 K, x1 = 0.6006	1831.45	1.52315
303.15 K, x1 = 0.7011	2064.32	1.54493
303.15 K, x1 = 0.8006	2321.36	1.56925
303.15 K, x1 = 0.9006	2611.47	1.59716
303.15 K, x1 = 1	2939.86	1.62926

BrC(Br)C(Br)Br [1,1,2,2-tetrabromoethane] + CCCCCCCCO
Settings	mass density, [3] [kg/m3]	refractive index, [4]
293.15 K, x1 = 0.101	989.26	1.44433
293.15 K, x1 = 0.2013	1161.15	1.45995
293.15 K, x1 = 0.2997	1338.99	1.47641
293.15 K, x1 = 0.3994	1529.17	1.49411
293.15 K, x1 = 0.5002	1732.98	1.51358
293.15 K, x1 = 0.6003	1947.95	1.53421
293.15 K, x1 = 0.6998	2175.4	1.55634
293.15 K, x1 = 0.7998	2419.28	1.58047
293.15 K, x1 = 0.9011	2684.42	1.60696
293.15 K, x1 = 1	2963.2	1.63535
303.15 K, x1 = 0.101	980.93	1.44015
303.15 K, x1 = 0.2013	1151.32	1.45566
303.15 K, x1 = 0.2997	1327.63	1.4717
303.15 K, x1 = 0.3994	1516.19	1.48929
303.15 K, x1 = 0.5002	1718.29	1.50826
303.15 K, x1 = 0.6003	1931.52	1.52869
303.15 K, x1 = 0.6998	2157.22	1.55075
303.15 K, x1 = 0.7998	2399.36	1.57464
303.15 K, x1 = 0.9011	2662.77	1.60101
303.15 K, x1 = 1	2939.86	1.62926

BrC(Br)C(Br)Br [1,1,2,2-tetrabromoethane] + CCCCCCCO
Settings	mass density, [3] [kg/m3]	refractive index, [4]
293.15 K, x1 = 0.099	1001.11	1.44056
293.15 K, x1 = 0.1999	1189.38	1.45821
293.15 K, x1 = 0.3001	1383.2	1.47658
293.15 K, x1 = 0.3995	1582.25	1.49566
293.15 K, x1 = 0.5006	1792.24	1.51595
293.15 K, x1 = 0.5987	2003.6	1.5368
293.15 K, x1 = 0.6993	2229.07	1.55935
293.15 K, x1 = 0.799	2461.79	1.58311
293.15 K, x1 = 0.8992	2706	1.60832
293.15 K, x1 = 1	2963.2	1.63535
303.15 K, x1 = 0.099	992.57	1.43619
303.15 K, x1 = 0.1999	1179.18	1.45352
303.15 K, x1 = 0.3001	1371.29	1.47156
303.15 K, x1 = 0.3995	1568.62	1.49038
303.15 K, x1 = 0.5006	1776.88	1.51053
303.15 K, x1 = 0.5987	1986.59	1.53124
303.15 K, x1 = 0.6993	2210.42	1.55368
303.15 K, x1 = 0.799	2441.56	1.57727
303.15 K, x1 = 0.8992	2684.21	1.60236
303.15 K, x1 = 1	2939.86	1.62926

BrC(Br)C(Br)Br [1,1,2,2-tetrabromoethane] + CCCCCCO
Settings	mass density, [3] [kg/m3]	refractive index, [4]
293.15 K, x1 = 0.1001	1021.6	1.43743
293.15 K, x1 = 0.2007	1227.75	1.45713
293.15 K, x1 = 0.3004	1434.26	1.4771
293.15 K, x1 = 0.4004	1643.89	1.49787
293.15 K, x1 = 0.5005	1856.54	1.51914
293.15 K, x1 = 0.6008	2072.22	1.54101
293.15 K, x1 = 0.6999	2288.24	1.56327
293.15 K, x1 = 0.8012	2512.37	1.58693
293.15 K, x1 = 0.9001	2734.51	1.61052
293.15 K, x1 = 1	2963.2	1.63535
303.15 K, x1 = 0.1001	1012.63	1.43304
303.15 K, x1 = 0.2007	1216.94	1.45244
303.15 K, x1 = 0.3004	1421.62	1.47214
303.15 K, x1 = 0.4004	1629.48	1.49244
303.15 K, x1 = 0.5005	1840.42	1.51355
303.15 K, x1 = 0.6008	2054.51	1.53523
303.15 K, x1 = 0.6999	2269.06	1.55749
303.15 K, x1 = 0.8012	2491.76	1.58095
303.15 K, x1 = 0.9001	2712.53	1.60452
303.15 K, x1 = 1	2939.86	1.62926

BrC(Br)C(Br)Br [1,1,2,2-tetrabromoethane] + CCCCCO
Settings	mass density, [3] [kg/m3]	refractive index, [4]
293.15 K, x1 = 0.1009	1048.36	1.43257
293.15 K, x1 = 0.2014	1276.63	1.45508
293.15 K, x1 = 0.3004	1497.47	1.47732
293.15 K, x1 = 0.4003	1716.5	1.49977
293.15 K, x1 = 0.5014	1934.64	1.52252
293.15 K, x1 = 0.6001	2144.16	1.54476
293.15 K, x1 = 0.7001	2353.22	1.56734
293.15 K, x1 = 0.7998	2558.61	1.58989
293.15 K, x1 = 0.8997	2761.73	1.61255
293.15 K, x1 = 1	2963.2	1.63535
303.15 K, x1 = 0.1009	1038.85	1.42823
303.15 K, x1 = 0.2014	1265.1	1.45052
303.15 K, x1 = 0.3004	1484.08	1.47247
303.15 K, x1 = 0.4003	1701.36	1.49475
303.15 K, x1 = 0.5014	1917.88	1.51723
303.15 K, x1 = 0.6001	2125.93	1.53938
303.15 K, x1 = 0.7001	2333.58	1.5616
303.15 K, x1 = 0.7998	2537.64	1.58403
303.15 K, x1 = 0.8997	2739.49	1.60652
303.15 K, x1 = 1	2939.86	1.62926

CCCCCCCCCCO [decan-1-ol]
Settings	mass density, [1] [kg/m3]	refractive index, [2]
293.15 K	829.7	1.43706
303.15 K	822.85	1.43302

CCCCCCCCCCO [decan-1-ol] + BrC(Br)C(Br)Br
x2 = 0
Settings	mass density, [3] [kg/m3]	refractive index, [4]
293.15 K	829.7	1.43706
303.15 K	822.85	1.43302

CCCCCCCO [heptan-1-ol]
Settings	mass density, [1] [kg/m3]	refractive index, [2]
293.15 K	822.39	1.42397
303.15 K	815.41	1.42002

CCCCCCCO [heptan-1-ol] + BrC(Br)C(Br)Br
x2 = 0
Settings	mass density, [3] [kg/m3]	refractive index, [4]
293.15 K	822.39	1.42397
303.15 K	815.41	1.42002

CCCCCCO [hexan-1-ol]
Settings	mass density, [1] [kg/m3]	refractive index, [2]
293.15 K	818.92	1.41826
303.15 K	811.73	1.41423

CCCCCCO [hexan-1-ol] + BrC(Br)C(Br)Br
x2 = 0
Settings	mass density, [3] [kg/m3]	refractive index, [4]
293.15 K	818.92	1.41826
303.15 K	811.73	1.41423

CCCCCCCCO [octan-1-ol]
Settings	mass density, [1] [kg/m3]	refractive index, [2]
293.15 K	824.99	1.42958
303.15 K	818.09	1.42562

CCCCCCCCO [octan-1-ol] + BrC(Br)C(Br)Br
x2 = 0
Settings	mass density, [3] [kg/m3]	refractive index, [4]
293.15 K	824.99	1.42958
303.15 K	818.09	1.42562

CCCCCO [pentan-1-ol]
Settings	mass density, [1] [kg/m3]	refractive index, [2]
293.15 K	815.03	1.40995
303.15 K	807.6	1.40592

CCCCCO [pentan-1-ol] + BrC(Br)C(Br)Br
x2 = 0
Settings	mass density, [3] [kg/m3]	refractive index, [4]
293.15 K	815.03	1.40995
303.15 K	807.6	1.40592
